This assay relates to Ba/F3-FGFR3-BAIAP2L1 cells. Kind of assay: Inhibition of proliferation activity of Ba/F3-FGFR3-BAIAP2L1 cells (CellTiter-Glo). The assay is classed as cell-based. The following applies: for IC50: read-out: IC50 (nM) Ba/F3-FGFR3-BAIAP2L1; for Selectivity (X) FGFR1/FGFR3: ratio of IC50 Ba/F3-BCR-FGFR1 to IC50 Ba/F3-FGFR3-BAIAP2L1. On the procedure: The present experiment used CellTiter-Glo® Luminescent Cell Viability Assay (Promega: G7573) kit, which was a homogeneous cell viability detection method and determined the cell viability of cultured cells by quantifying ATP. • ① Ba/F3-BCR-FGFR1 or Ba/F3-FGFR3-BAIAP2L1 cells were cultured in 1640 complete medium (Gibco: 11879020) (10% FBS (Gibco: 10091-148)+1% Pen Strep (Gibco: 15140122)) under the condition of 37°C and 5% CO2. • (2) The cells in logarithmic growth phase were harvested and counted using a […]. The trypan blue exclusion method was used to detect cell viability to ensure the cell viability was above 90%. • ③ The cell density was adjusted using 1640 complete medium, and then, the cells were seeded into a 96-well cell culture plate at 90 µL/well with a total of 2000 cells. • ④ A 10-fold drug solution was prepared starting from a maximum drug concentration of 10 µM and 4-fold serially diluted into10 concentrations. […] The luminescence values were read to collect the data. • ⑩ The data were analyzed using XLFit excel plugin version 5.5.0.5, and fitted with non-linear S-curve regression to obtain the dose-response curves and thus calculate the IC50 values. Y = Bottom + (Top-Bottom)/((1+(IC50/X))^(∧) HillSlope [formula]
"Top" refers to the maximum response, "Bottom" refers to the minimum response, and "HillSlope" refers to the slope of the curve.
"Max" represents the average value of the cell control+DMSO, and "Min" represents the average value of the medium control+DMSO.
(Cellular ATP, detected with luciferase, serves as a proxy for viable cell number.)

Setting [1] is: Ba/F3-FGFR3-BAIAP2L1 cells, 72 hours, CTG.

Here are results for 19 compounds from patent publication EP4644383A1 (Jiangsu Yahong Meditech Co., Ltd., priority 2022, dated 2024).

Like-named read-outs stand apart in the source and are kept apart here.

As for `C[C@@H](Oc1ccc2[nH]nc(-c3ccc(S(C)(=N)=O)nc3)c2c1)c1c(Cl)cncc1Cl` (stereo partly drawn) [Comparative Example 85, (5-(5-((R)-1-(3,5-dichloropyridin-4-yl)ethoxy)-1H-indazol-3-yl)pyridin-2-yl)(imino)(methyl)-sulfanone, reference compound], the IC50 (72 h) was determined as 5.4 nM.

As for `C[C@@H](Oc1cc(F)c2[nH]nc(-c3cnn(CCN4CCOCC4)c3)c2c1)c1c(Cl)cncc1Cl` [Example 12, (R)-4-(2-(4-(5-(1-(3,5-dichloropyridin-4-yl)ethoxy)-7-fluoro-1H-indazol-3-yl)-1H-pyrazol-1-yl)ethyl)morph oline], the “Selectivity (X) FGFR1/FGFR3” value is recorded as 129 X. The IC50 under setting [1] was determined as 4.6 nM. Take `C[C@@H](Oc1ccc2[nH]nc(-c3cnn(C)c3)c2n1)c1c(Cl)cncc1Cl` [Example 29, (R)-5-(1-(3,5-dichloropyridin-4-yl)ethoxy)-3-(1-methyl-1H-pyrazol-4-yl)-1H-pyrazolo[4,3-b]pyridine]: the “Selectivity (X) FGFR1/FGFR3” value is reported as 127 X. Under setting [1], the IC50 was 0.3 nM. For the compound `C[C@@H](Oc1ccc2[nH]nc(-c3cnn(CCN4CCN(C)C(=O)C4)c3)c2n1)c1c(Cl)cncc1Cl` [Example 54, (R)-4-(2-(4-(5-(1-(3,5-dichloropyridin-4-yl)ethoxy)-1H-pyrazolo[4,3-b]pyridin-3-yl)-1H-pyrazol-1-yl)ethyl)-1-methylpiperazin-2-one], the “Selectivity (X) FGFR1/FGFR3” value came out at 147 X. Under setting [1], the IC50 stood at 1.2 nM. On to `C[C@@H](Oc1ccc2[nH]nc(-c3cnn(CCN4CCS(=O)(=O)CC4)c3)c2n1)c1c(Cl)cncc1Cl` [Example 55, (R)-4-(2-(4-(5-(1-(3,5-dichloropyridin-4-yl)ethoxy)-1H-pyrazolo[4,3-b]pyridin-3-yl)-1H-pyrazol-1-yl)ethyl)thiomorph oline 1,1-dioxide], for which the “Selectivity (X) FGFR1/FGFR3” value is on record as 126 X. For the same compound, the IC50 under setting [1] was determined as 0.7 nM. For the compound `CC(Oc1ccc2[nH]nc(-c3cnn(C)c3)c2c1)c1cccc2ncccc12` (stereo not drawn) [Example 88, 5-(1-((3-(1-methyl-1H-pyrazol-4-yl)-1H-indazol-5-yl)oxy)ethyl)quin oline], the “Selectivity (X) FGFR1/FGFR3” value came to 180 X. Under setting [1], the IC50 was determined as 19 nM. `CC(Oc1ccc2[nH]nc(-c3cnn(C)c3)c2c1)c1cccc2nccnc12` (stereo not drawn) [Example 92, 5-(1-((3-(1-methyl-1H-pyrazol-4-yl)-1H-indazol-5-yl)oxy)ethyl)quin oxaline]: the “Selectivity (X) FGFR1/FGFR3” value is on record as 35 X. Also, the IC50 under setting [1] worked out at 2.8 nM. For `Cc1ccc2ncccc2c1C(C)Oc1ccc2[nH]nc(-c3cnn(C)c3)c2c1` (stereo not drawn) [Example 95, 6-methyl-5-(1-((3-(1-methyl-1H-pyrazol-4-yl)-1H-indazol-5-yl)oxy)ethyl)quinolinee] the same measures were 51 X and 8 nM. Consider `CC(Oc1ccc2[nH]nc(-c3cnn(C)c3)c2c1)c1cccn2ncnc12` (stereo not drawn) [Example 101, 8-(1-((3-(1-methyl-1H-pyrazol-4-yl)-1H-indazol-5-yl)oxy)ethyl)-[1,2,4]triazolo[1,5-a]pyridine], for which the “Selectivity (X) FGFR1/FGFR3” value stood at 23 X. Moreover, under setting [1], the IC50 came out at 10.6 nM. As to `CC(Oc1ccc2[nH]nc(-c3cnn(C)c3)c2c1)c1c(C(F)F)ccc2ncccc12` (stereo not drawn) [Example 127, 6-(difluoromethyl)-5-(1-((3-(1-methyl-1H-pyrazol-4-yl)-1H-indazol-5-yl)oxy)ethyl)quinoline], the “Selectivity (X) FGFR1/FGFR3” value is 195 X. The IC50 under setting [1] was found to be 4.8 nM. `CC(Oc1ccc2[nH]nc(-c3cnn(C)c3)c2c1)c1c(CF)ccc2ncccc12` (stereo not drawn) [Example 130, 6-(fluoromethyl)-5-(1-((3-(1-methyl-1H-pyrazol-4-yl)-1H-indazol-5-yl)oxy)ethyl)q uinoline]: the IC50 under setting [1] is 12.9 nM. Take `CC(Oc1ccc2[nH]nc(-c3cnn(C)c3)c2c1)c1cc(Cl)cc2nccnc12` (stereo not drawn) [Example 136, 7-chloro-5-(1-((3-(1-methyl-1H-pyrazol-4-yl)-1H-indazol-5-yl)oxy)ethyl)qu inoxaline]: the “Selectivity (X) FGFR1/FGFR3” value is 111 X. Besides, under setting [1], the IC50 worked out at 3.4 nM. Regarding `Cc1cc2nccnc2c(C(C)Oc2ccc3[nH]nc(-c4cnn(C)c4)c3c2)n1` (stereo not drawn) [Example 183, 7-methyl-5-(1-((3-(1-methyl-1H-pyrazol-4-yl)-1H-indazol-5-yl)oxy)ethyl)pyridino [3,4-b]pyrazine], the “Selectivity (X) FGFR1/FGFR3” value is 139 X. Besides, the IC50 under setting [1] was determined as 0.4 nM. On to `COCC(=O)N1CC(n2cc(-c3n[nH]c4ccc(OC(C)c5cccc6nccnc56)cc34)cn2)C1` (stereo not drawn) [Example 188, 2-methoxy-1-(3-(4-(5-(1-(quinoxalin-5-yl)ethoxy)-1H-indazol-3-yl)-1H-pyrazol-1-yl)azetidin-1-yl)ethan-1-one], for which the “Selectivity (X) FGFR1/FGFR3” value came to 91 X. Moreover, the IC50 under setting [1] was found to be 3.1 nM. Regarding `CC(Oc1ccc2[nH]nc(-c3cnn(C4CN(C(=O)C(C)(C)O)C4)c3)c2c1)c1cccc2nccnc12` (stereo not drawn) [Example 190, 2-hydroxy-2-methyl-1-(3-(4-(5-(1-(quinoxalin-5-yl)ethoxy)-1H-indazol-3-yl)-1H-pyrazol-1-yl)azetidin-1-yl)propan-1-one], the “Selectivity (X) FGFR1/FGFR3” value came to 113 X. Further, under setting [1], the IC50 is 3.8 nM. For the compound `CC(=O)N1CC(n2cc(-c3n[nH]c4ccc(OC(C)c5cccc6nccnc56)cc34)cn2)C1` (stereo not drawn) [Example 218, 1-(3-(4-(5-(1-(quinoxalin-5-yl)ethoxy)-1H-indazol-3-yl)-1H-pyrazol-1-yl)azetidin-1-yl)ethan-1-one], the “Selectivity (X) FGFR1/FGFR3” value is listed as 53 X. In addition, the IC50 under setting [1] was found to be 8.4 nM.

As to `CC(Oc1cc2c(-c3cnn(C)c3)n[nH]c2cc1F)c1cc(Cl)cc2nccnc12` (stereo not drawn) [Example 227, 7-chloro-5-(1-((6-fluoro-3-(1-methyl-1H-pyrazol-4-yl)-1H-indazol-5-yl)oxy)ethyl)qu inoxaline], the “Selectivity (X) FGFR1/FGFR3” value was 126 X. The IC50 under setting [1] was found to be 3.1 nM. `CC(Oc1ccc2[nH]nc(-c3cnn(C)c3)c2c1)c1nc(C(F)F)cc2nccnc12` (stereo not drawn) [Example 236, 7-(difluoromethyl)-5-(1-((3-(1-methyl-1H-pyrazol-4-yl)-1H-indazol-5-yl)oxy)ethyl)pyridino[3,4-b]pyrazine]: the “Selectivity (X) FGFR1/FGFR3” value came to 182 X. For the same compound, the IC50 under setting [1] was determined as 0.9 nM. Take `[2H]C([2H])([2H])c1cc2nccnc2c(C(C)Oc2ccc3[nH]nc(-c4cnn(C)c4)c3c2)n1` (stereo not drawn) [Example 241]: the “Selectivity (X) FGFR1/FGFR3” value was found to be 76 X. For the same compound, under setting [1], the IC50 turned out to be 0.8 nM.
